Results published in patent US10570184B2, “GLP-1/glucagon receptor co-agonists for medical use” (Novo Nordisk A/S, priority 2014, dated 2020).
Starred links: 1 amine or outer side, 2 acyl side, 3 side chain; linkers in the order of their positions; H or OH if unused. Non-standard residues stand in square brackets, D forms with d. Residues, ends and D or L forms follow the SMILES beside them. Groups on a side chain read outwards from the residue. *: point of attachment. C18 diacid = O=C(O)CCCCCCCCCCCCCCCCC(=O)*; γGlu = O=C(O)[C@H](CCC(=O)[*:2])N[*:1]; AEEA = NCCOCCOCC(=O)O; Aib = CC(C)(N)C(=O)O

Assays:
[1] = target: T1, human glucagon receptor (Homo sapiens, UniProt P47871); experiment: Assay (I)(b) glucagon receptor activation, CRE luciferase reporter gene assay in BHK cells; format: cell-based; settings: without presence of serum albumin; read-out: GlucagonR EC50 (pM), [Assay (I)(b)]
T1 construct: expressed in transfected cells; host or cells: membranes of BHK cells, clone BHK hGCGR A3*25
Procedure: The purpose of this example was to test the activity or potency, of the glucagon derivatives of the invention, in vitro. The in vitro potency is the measure of human GLP-1 receptor (GLP-1R) or glucagon receptor (glucagonR) activation, respectively, in a whole cell assay. In vitro potency was determined by measuring the response of human GLP-1 or glucagon receptor, respectively, in a reporter gene assay. The assay was performed in a stably transfected BHK cell line that expresses either the human GLP-1 receptor or the human glucagon receptor and contains the DNA for the cAMP response element (CRE) coupled to a promoter and the gene for firefly luciferase (CRE luciferase). […] When assay incubation was completed, the luciferase substrate (luciferin) was added and the enzyme converted luciferin to oxyluciferin and produces bioluminescence. The luminescence was measured as the readout for the assay. The cells used in this assay (clone pLJ6′-4-25) were BHK cells with BHK570 as a parent cell line expressing the CRE luciferase gene (clone BHK/KZ10-20-48) and were established by further transfection with the human glucagon receptor (clone pLJ6′ in pHZ-1 vector). The cells were cultured at 5% CO2 in DMEM medium with 10% FBS, 1×GlutaMAX, 1 mg/ml G418, 240 nM MTX (methotrexate) and 1% pen/strep (penicillin/streptomycin). They were aliquoted and stored in liquid nitrogen. Before each assay, an aliquot was taken up and washed three times in PBS before being suspended at the desired concentration in assay medium. For 96-well plates the suspension was made to give a final concentration of 5×10EE3 cells/well. The following chemicals were used in the assay: Pluronic F-68 (10%) (Gibco 2404), ovalbumin (Sigma A5503), DMEM w/o phenol red (Gibco 11880-028), 1 M Hepes (Gibco 15630), Glutamax 100× (Gibco 35050) and steadylite plus (PerkinElmer 6016757). Assay Medium consisted of DMEM w/o phenol red, 10 mM Hepes, 1× GlutaMAX, 2% Ovalbumin and 0.2% Pluronic F-68. Cell stocks were thawed in a 37° C. water bath. Cells were washed three times in PBS. The cells were counted and adjusted to 5×10EE3 cells/50 μl (1×10EE5 cells/ml) in Assay Medium. A 50 μl aliquot of cells was transferred to each well in the assay plate. Stocks of the test compounds and reference compounds were diluted to a concentration of […] in Assay Medium. Compounds were diluted 10-fold to give the following concentrations: 2×10EE-6 M, 2×10EE-7 M, 2×10EE-8 M; 2×10EE-9 M, 2×10EE-10 M, 2×10EE-11 M, 2×10EE-12 M and 2×10EE-13 M. For each compound a blank assay medium control was also included. A 50 μl aliquot of compound or blank was transferred from the dilution plate to the assay plate. Compounds were tested at the following final concentrations: 1×10EE-6 M, 1×10EE-7 M, 1×10EE-8 M; 1×10EE-9 M, 1×10EE-10 M, 1×10EE-11 M and 1×10EE-12 M and 1×10EE-13 M. The assay plate was incubated for 3 h in a 5% CO2 incubator at 37° C. The assay plate was removed from the incubator and allowed to stand at room temperature for 15 min. A 100 μl aliquot of steadylite plus reagent was added to each well of the assay plate (reagent is light sensitive). Each assay plate was covered with aluminum foil to protect it from light and shaken for 30 min at room temperature. Each assay plate was read in a Perkin Elmer TopCount NXT instrument. The data from the TopCount instrument was transferred to GraphPad Prism software. The software performed a non-linear regression (log(agonist) vs response-Variable slope (four parameter)). EC50 values were calculated by the software and reported in pM.

[2] = target: T2, human GLP-1 receptor (Homo sapiens, UniProt P43220); experiment: Assay (I)(a) GLP-1 receptor activation, CRE luciferase reporter gene assay in BHK cells; format: cell-based; settings: without presence of serum albumin; read-out: GLP-1R EC50 (pM) [Assay (I)(a)]
T2 construct: expressed in transfected cells; host or cells: membranes of BHK cells (parent BHKTS13), clone FCW467-12A
How it was run: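 Stable BHK clone expressing human GLP-1 receptor with CRE-driven firefly luciferase, 5×10EE3 cells/well in medium with 2% ovalbumin and 0.2% Pluronic F-68. Compounds at 1×10EE-13 to 1×10EE-6 M final, 3 h at 37° C.; luminescence read, EC50 (pM) from four-parameter fit.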

[3] = Assay (III) ThT fibrillation assay for physical stability; format: physicochemical; settings: 250 μM in 10 mM HEPES buffer, 37° C., shaking 960 rpm
Source text: The purpose of this assay is to assess the physical stability of the glucagon derivatives of the invention in aqueous solutions. Low physical stability of a peptide may lead to amyloid fibril formation, which is observed as well-ordered, thread-like macromolecular structures in the sample, which eventually may lead to gel formation. This has traditionally been measured by visual inspection of the sample. However, that kind of measurement is very subjective and depending on the observer. Therefore, the application of a small molecule indicator probe is much more advantageous. Thioflavin T (ThT) is such a probe and has a distinct fluorescence signature when binding to fibrils [Naiki et al. (1989) Anal. Biochem. 177, 244-249; LeVine (1999) Methods. Enzymol. 309, 274-284]. […] The constant t0 is the time needed to reach 50% of maximum fluorescence. The two important parameters describing fibril formation are the lag-time calculated by t0−2τ and the apparent rate constant kapp 1/τ. Samples were prepared freshly before each assay. Each sample composition is described in the legends. The pH of the sample was adjusted to the desired value using appropriate amounts of concentrated NaOH and HCl. Thioflavin T was added to the samples from a stock solution in H2O to a final concentration of 1 μM. Sample aliquots of 200 μl (250 μM of the glucagon derivative in 10 mM HEPES buffer, pH 7.5) were placed in a 96 well microtiter plate (Packard OptiPlate™-96, white polystyrene). Usually, four or eight replica of each sample (corresponding to one test condition) were placed in one column of wells. The plate was sealed with Scotch Pad (Qiagen). Incubation at given temperature, shaking and measurement of the ThT fluorescence emission were done in a Fluoroskan Ascent FL fluorescence platereader (Thermo Labsystems). The temperature was adjusted to 37° C. The plate was incubated with orbital shaking adjusted to 960 rpm with an amplitude of 1 mm. Fluorescence measurement was done using excitation through a 444 nm filter and measurement of emission through a 485 nm filter. Each run was initiated by incubating the plate at the assay temperature for 10 min. The plate was measured every 20 minutes for a desired period of time. Between each measurement, the plate was shaken and heated as described. After completion of the ThT assay the four or eight replica of each sample was pooled and centrifuged at 20000 rpm for 30 minutes at 18° C. The supernatant was filtered through a 0.22 μm filter and an aliquot was transferred to a HPLC vial. The concentration of peptide in the initial sample and in the filtered supernatant was determined by reverse phase HPLC using an appropriate standard as reference. The percentage fraction the concentration of the filtered sample constituted of the initial sample concentration was reported as the recovery. The measurement points were saved in Microsoft Excel format for further processing and curve drawing and fitting was performed using GraphPad Prism. The background emission from ThT in the absence of fibrils was negligible. The data points are typically a mean of four or eight samples and shown with standard deviation error bars. Only data obtained in the same experiment (i.e. samples on the same plate) are presented in the same graph ensuring a relative measure of fibrillation between experiments. The data set may be fitted to Eq. (1).

T2 sequence (P43220 24-463): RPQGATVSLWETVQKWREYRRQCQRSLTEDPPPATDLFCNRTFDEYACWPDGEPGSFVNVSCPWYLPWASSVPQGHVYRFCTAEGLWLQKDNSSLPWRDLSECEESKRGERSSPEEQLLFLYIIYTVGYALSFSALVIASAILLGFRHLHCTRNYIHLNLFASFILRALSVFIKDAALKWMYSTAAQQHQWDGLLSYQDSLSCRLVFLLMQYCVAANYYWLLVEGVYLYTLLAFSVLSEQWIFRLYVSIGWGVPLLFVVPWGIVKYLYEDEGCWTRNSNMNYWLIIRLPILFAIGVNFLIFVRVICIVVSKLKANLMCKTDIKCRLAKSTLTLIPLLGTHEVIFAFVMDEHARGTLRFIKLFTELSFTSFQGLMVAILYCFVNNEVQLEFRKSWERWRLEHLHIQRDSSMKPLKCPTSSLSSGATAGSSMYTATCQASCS
T1 sequence (P47871 26-477): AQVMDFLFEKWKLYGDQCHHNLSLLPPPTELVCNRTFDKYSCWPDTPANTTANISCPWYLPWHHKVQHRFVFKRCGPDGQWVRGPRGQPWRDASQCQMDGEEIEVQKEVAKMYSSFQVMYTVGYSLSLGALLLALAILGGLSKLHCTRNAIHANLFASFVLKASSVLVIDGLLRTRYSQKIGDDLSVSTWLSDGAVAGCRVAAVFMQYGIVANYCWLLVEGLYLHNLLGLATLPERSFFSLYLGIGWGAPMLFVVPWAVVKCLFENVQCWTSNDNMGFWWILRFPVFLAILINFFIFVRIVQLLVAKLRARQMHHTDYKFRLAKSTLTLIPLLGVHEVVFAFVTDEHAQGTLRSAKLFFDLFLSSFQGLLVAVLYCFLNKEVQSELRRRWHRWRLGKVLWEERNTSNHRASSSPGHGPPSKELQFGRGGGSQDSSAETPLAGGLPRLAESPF

SMILES	EC50 [1] [pM]	EC50 [2] [pM]	ThT Assay Lag time (h) [Assay (III), pH 7.5] [3] [h]
CC[C@H](C)[C@H](NC(=O)[C@H](CC(C)C)NC(=O)[C@H](Cc1c[nH]c2ccccc12)NC(=O)[C@H](CCC(N)=O)NC(=O)[C@@H](NC(=O)[C@H](Cc1ccccc1)NC(=O)[C@H](CC(=O)O)NC(=O)[C@H](CCCNC(=N)N)NC(=O)[C@H](C)NC(=O)[C@H](CCCNC(=N)N)NC(=O)[C@H](CCCNC(=N)N)NC(=O)[C@H](C)NC(=O)[C@H](CC(=O)O)NC(=O)[C@H](CC(C)C)NC(=O)[C@H](Cc1ccc(O)cc1)NC(=O)[C@H](CCCCN)NC(=O)[C@H](CO)NC(=O)[C@H](CC(C)C)NC(=O)[C@H](CC(=O)O)NC(=O)[C@H](CO)NC(=O)[C@@H](NC(=O)[C@H](Cc1ccccc1)NC(=O)[C@@H](NC(=O)CNC(=O)[C@H](CCC(N)=O)NC(=O)C(C)(C)NC(=O)[C@@H](N)Cc1c[nH]cn1)[C@@H](C)O)[C@@H](C)O)C(C)C)C(=O)N[C@@H](CCCCNC(=O)CC[C@H](NC(=O)CC[C@H](NC(=O)CC[C@H](NC(=O)CCCCCCCCCCCCCCCCC(=O)O)C(=O)O)C(=O)O)C(=O)O)C(=O)N[C@H](C(N)=O)[C@@H](C)O [Chem. 15, N^ε28-[(4S)-4-carboxy-4-[[(4S)-4-carboxy-4-[[(4S)-4-carboxy-4-(17-carboxyheptadecanoylamino)butanoyl]amino]butanoyl]amino]butanoyl]-[Aib2,Leu10,Ala16,Arg20,Ile27,Lys28]-Glucagon amide] (HELM PEPTIDE1{H.[Aib].Q.G.T.F.T.S.D.L.S.K.Y.L.D.A.R.R.A.R.D.F.V.Q.W.L.I.K.T.[am]}|PEPTIDE2{[O=C(O)CCCCCCCCCCCCCCCCC(=O)[*:2]].[gGlu].[gGlu].[gGlu]}$PEPTIDE1,PEPTIDE2,28:R3-4:R2$$$V2.0)	7	4	
CC[C@H](C)[C@H](NC(=O)[C@H](CC(C)C)NC(=O)[C@H](Cc1c[nH]c2ccccc12)NC(=O)[C@H](C)NC(=O)[C@@H](NC(=O)[C@H](Cc1ccccc1)NC(=O)[C@H](CC(=O)O)NC(=O)[C@H](CCCNC(=N)N)NC(=O)[C@H](C)NC(=O)[C@H](CCCNC(=N)N)NC(=O)[C@H](CCCNC(=N)N)NC(=O)[C@H](CC(C)C)NC(=O)[C@H](CC(=O)O)NC(=O)[C@H](CC(C)C)NC(=O)[C@H](Cc1ccc(O)cc1)NC(=O)[C@H](CCCCN)NC(=O)[C@H](CO)NC(=O)[C@H](Cc1ccc(O)cc1)NC(=O)[C@H](CC(=O)O)NC(=O)[C@H](CO)NC(=O)[C@@H](NC(=O)[C@H](Cc1ccccc1)NC(=O)[C@@H](NC(=O)CNC(=O)[C@H](CCC(N)=O)NC(=O)C(C)(C)NC(=O)[C@@H](N)Cc1c[nH]cn1)[C@@H](C)O)[C@@H](C)O)C(C)C)C(=O)N[C@@H](CCCCNC(=O)CC[C@H](NC(=O)CC[C@H](NC(=O)COCCOCCNC(=O)COCCOCCNC(=O)CC[C@H](NC(=O)CCCCCCCCCCCCCCCCC(=O)O)C(=O)O)C(=O)O)C(=O)O)C(=O)N[C@H](C(N)=O)[C@@H](C)O [Chem. 33, N^ε28-[(4S)-4-carboxy-4-[[(4S)-4-carboxy-4-[[2-[2-[2-[[2-[2-[2-[[(4S)-4-carboxy-4-(17-carboxyheptadecanoylamino)butanoyl]amino]ethoxy]ethoxy]acetyl]amino]ethoxy]ethoxy]acetyl]amino]butanoyl]amino]butanoyl]-[Aib2,Leu16,Arg20,Ala24,Ile27,Lys28]-Glucagon amide] (H-H[Aib]QGTFTSDYSKYLDLRRARDFVAWLIK([γGlu-γGlu-AEEA-AEEA-γGlu-C18 diacid])T-NH2)		7	45.0
